Experiment: xn = mol fraction of the nth substance listed
Conditions: Liquid; for viscosity: Oscillating disk viscometry; for mass density: Vibrating tube method

CCCCn1cc[n+](C)c1.F[B-](F)(F)F [1-butyl-3-methylimidazolium tetrafluoroborate] + O
Conditions | mass density, x1 = 0.01 [kg/m3] | mass density, x1 = 0.0227 [kg/m3] | mass density, x1 = 0.0392 [kg/m3] | mass density, x1 = 0.0616 [kg/m3] | mass density, x1 = 0.0938 [kg/m3] | viscosity, x1 = 0.01 [mPa·s] | viscosity, x1 = 0.0227 [mPa·s] | viscosity, x1 = 0.0392 [mPa·s] | viscosity, x1 = 0.0616 [mPa·s] | viscosity, x1 = 0.0938 [mPa·s]
293.15 K, 101 kPa | – | – | – | – | – | 1.07 | 1.35 | 1.84 | 2.28 | 3.04
293.15 K, 101.3 kPa | 1018.9 | 1038.1 | 1060.4 | 1079.5 | 1103.7 | – | – | – | – | –
298.15 K, 101 kPa | – | – | – | – | – | 0.95 | 1.19 | 1.6 | 1.98 | 2.69
298.15 K, 101.3 kPa | 1017.1 | 1036 | 1058 | 1076.7 | 1100.6 | – | – | – | – | –
303.15 K, 101 kPa | – | – | – | – | – | 0.84 | 1.05 | 1.4 | 1.75 | 2.34
303.15 K, 101.3 kPa | 1015.2 | 1033.5 | 1055.3 | 1073.6 | 1097.2 | – | – | – | – | –
308.15 K, 101 kPa | – | – | – | – | – | 0.76 | 0.95 | 1.25 | 1.56 | 2.06
308.15 K, 101.3 kPa | 1013.2 | 1031.3 | 1052.6 | 1070.7 | 1093.9 | – | – | – | – | –
313.15 K, 101 kPa | – | – | – | – | – | 0.69 | 0.86 | 1.13 | 1.4 | 1.84
313.15 K, 101.3 kPa | 1010.9 | 1028.6 | 1049.8 | 1067.5 | 1090.5 | – | – | – | – | –
318.15 K, 101 kPa | – | – | – | – | – | 0.64 | 0.79 | 1.02 | 1.27 | 1.66
318.15 K, 101.3 kPa | 1008.6 | 1025.9 | 1046.9 | 1064.3 | 1087.4 | – | – | – | – | –
323.15 K, 101 kPa | – | – | – | – | – | 0.59 | 0.74 | 0.94 | 1.16 | 1.48
323.15 K, 101.3 kPa | 1006.1 | 1023.4 | 1044 | 1061.2 | 1084.1 | – | – | – | – | –
328.15 K, 101 kPa | – | – | – | – | – | 0.55 | 0.69 | 0.88 | 1.07 | 1.31
328.15 K, 101.3 kPa | 1001.8 | 1019.8 | 1041.4 | 1058.3 | 1080.9 | – | – | – | – | –
333.15 K, 101 kPa | – | – | – | – | – | 0.53 | 0.62 | 0.82 | 0.99 | 1.26
333.15 K, 101.3 kPa | 999.2 | 1017.6 | 1040.6 | 1057.4 | 1079.9 | – | – | – | – | –

NCCO [2-aminoethan-1-ol] + O
101.3 kPa
Conditions | mass density, x1 = 0.0394 [kg/m3] | mass density, x1 = 0.087 [kg/m3] | mass density, x1 = 0.1456 [kg/m3] | mass density, x1 = 0.2197 [kg/m3] | viscosity, x1 = 0.0394 [mPa·s] | viscosity, x1 = 0.087 [mPa·s] | viscosity, x1 = 0.1456 [mPa·s] | viscosity, x1 = 0.2197 [mPa·s]
293.15 K | 1005.3 | 1011.8 | 1018.9 | 1025.7 | 1.19 | 2.1 | 3.06 | 5.58
298.15 K | 1003.8 | 1009.9 | 1016.3 | 1022.7 | 1.06 | 1.71 | 2.69 | 4.67
303.15 K | 1002.1 | 1007.7 | 1013.7 | 1019.7 | 0.94 | 1.47 | 2.29 | 3.91
308.15 K | 1000.3 | 1005.6 | 1011.2 | 1016.8 | 0.85 | 1.3 | 1.91 | 3.28
313.15 K | 998.2 | 1003.2 | 1008.5 | 1013.6 | 0.76 | 1.15 | 1.69 | 2.77
318.15 K | 996 | 1000.7 | 1005.7 | 1010.5 | 0.69 | 1.03 | 1.5 | 2.39
323.15 K | 993.8 | 998.2 | 1002.8 | 1007.3 | 0.63 | 0.93 | 1.33 | 2.11
328.15 K | 988.9 | 995.8 | 1000.1 | 1004.4 | 0.58 | 0.85 | 1.17 | 1.85
333.15 K | 987.2 | 995.1 | 999.3 | 1003.2 | 0.54 | 0.79 | 1.05 | 1.65
